What was measured:
[1] = test system: male spontaneously hypertensive rat (SHR); assay: Micturition frequency and bladder pressure by telemetry in the male spontaneously hypertensive rat (SHR); type: in vivo; conditions: 60 mg/kg s/c
Method: Effect of an Alpha-2-delta Ligand on Micturition Frequency and Bladder Pressure in the Male Spontaneously Hypertensive Rat (SHR)
Eight (8) male spontaneously hypertensive rats were prepared surgically with Data Sciences International (DSI) telemetry transponders (TL11M2-C50-PXT). Bladder pressure was continuously monitored with the aid of a pressure catheter placed via the dome of the bladder.
Bladder parameters (bladder pressure, voiding pressure and the number of voids) were recorded in response to placebo or treatment with 60 mg/kg Gabapentin administered subcutaneously (s/c).

[2] = test system: micturition reflex of anaesthetised rats; assay: Continuous cystometry: effects of an alpha-2-delta ligand on the micturition reflex of anaesthetised rats; type: in vivo, rat
Method: Investigation into the Effects of an Alpha-2-delta Ligand on the Micturition Reflex of Anaesthetised Rats
Four caesarean derived (CD) rats weighing approximately 225 g were anaesthetised using urethane and continuous cystometry performed.
The animals were anaesthetised using urethane (1.2 g/kg, i.p.). Depth of anaesthesia was assessed by the stability of blood pressure and heart rate, and by an absence of hind limb withdrawal in response to paw pinch. Supplementary doses of urethane ([…], i.v.) were given where necessary.
The trachea was intubated to maintain a patent airway, an external jugular vein was cannulated for drug administration, and a common carotid artery was cannulated with a heparinised cannula (20 units/ml heparin in 0.9% w/v saline) for the measurement of arterial blood pressure.
Blood pressure was measured using a pressure transducer and the heart rate (HR) derived electronically on-line from the blood pressure using PoneMah (Linton Pty Ltd UK). Body temperature was monitored with a rectal temperature probe and maintained between 36-38° C. using a homeothermic blanket system (Harvard, UK). Animals were allowed to breathe air spontaneously throughout the duration of the experiment.
The urinary bladder was exposed by a midline abdominal incision. A cannula (c. 0.52 mm internal and 1.2 mm external diameter) was inserted into the bladder dome as a means of infusing the bladder while simultaneously recording intravesical bladder pressure. The bladder was infused with physiological saline (0.9%) at the rate of 0.046 ml/min, to simulate the maximal hourly diuresis rate of the rat (Klevmark B [1974]—Motility of the urinary bladder in cats during filling at physiological rates. I. Intravesical pressure patterns studied by a new method of cystometry. Acta Physiol Scand 90(3): 565-77).
Following the surgical procedure the animals were allowed to stabilise for c. 30 min. After the stabilisation period, cystometry was performed and bladder function (interval between micturition) in response to Gabapentin-HCl (0.3, 1, 3 and 10 mg/kg administered intravenously) was monitored.
Differences between treatment groups were examined using ANOVA.
Gabapentin-HCl (Tocris, UK) was dissolved in saline.

Structure (SMILES) | melting point [°C] | bladder capacity ([1]; FIG. 2) | micturition interval ([1]; P<0.05, FIG. 2) | average bladder pressure during the filling stages of the micturition cycle ([1]; P<0.05 relative to control periods, FIG. 3) | micturition interval ([2]; 10 mg/kg intravenously, control 3.1±0.29 min, P<0.05) [min] | adverse effects on micturition efficiency, urine retention or bladder contraction upon voiding ([2]; 10 mg/kg, anaesthetised rats) | bladder capacity improved ([2]; anaesthetised rats, intravenous, as a consequence of the longer micturition interval) [%] | interval between voiding events ([2]; urethane-anaesthetised CD rats, 0.3, 1, 3 and 10 mg/kg intravenously, relative to control periods)
CCCC[C@@H](C)C[C@H](N)CC(=O)O.Cl | 142.5 to 143.3 |  |  |  |  |  |  | 
CCC[C@@H](C)C[C@H](N)CC(=O)O.Cl | 142.5 to 142.7 |  |  |  |  |  |  | 
NCC1(CC(=O)O)CCCCC1 [gabapentin, 1-(aminomethyl)-cyclohexylacetic acid] |  | increased bladder capacity | significantly decreased | significantly decreased | 9.89 ± 2.72 | did not have any adverse effects | 200 | significantly extended the interval between voiding events in a dose dependent manner

Source: patent US20040180958A1, “Method of treatment” (priority 2002, published 2004)
